Measured values published in patent US6586443B1, “Method of treating multiple sclerosis” (priority 1986, dated 2003).

What was measured:
[1] = system: genital herpes (herpes simplex virus (HSV) type No. 2); assay: case report: low dose naltrexone in chronic genital herpes; assay type: in vivo, human
Experimental: A person has had genital herpes for 13 years, experiencing a severe painful attack with several lesions for the 4-5 days preceding each menstrual period during most of that time. They were started on low dose naltrexone (1.75 mg per day at bedtime). […] Ten months later the dosage was increased to 2.75 mg/day also taken at bedtime. In the entire period of naltrexone treatment covering a number of months, they have had only two attacks each occurring 2-3 weeks after they ran out of naltrexone and interrupted the treatment temporarily.

[2] = system: Mu and Delta opiate receptor sites; details: generally rated; cited from earlier work
[3] = case report: low dose naltrexone in multiple sclerosis; assay type: in vivo, human; details: person
Experimental: This gradually cleared over a two month period. […] This gradually cleared. An attack of transverse myelitis at the lower thoracic level occurred four months later, their third attack in eight months. As they were recovering from this attack, they started on naltrexone, 1.75 mg per day at bedtime. […] This attack involved weakness and numbness of the left arm.

[4] = recent press reports; cited from earlier work

Compound | number of genital herpes attacks in the entire period of naltrexone treatment ([1]; 1.75 then 2.75 mg/day at bedtime, each attack 2-3 weeks after treatment was temporarily interrupted) | effect on genital herpes attacks after start of treatment ([1]; person, 1.75 mg per day at bedtime, oral) | Mu blocking action relative to Delta blocking action [2] | multiple sclerosis attacks after start of naltrexone ([3]; 1.75 mg per day at bedtime, three attacks in eight months before treatment) | multiple sclerosis attacks after resuming naltrexone ([3]; low dose naltrexone resumed after voluntary discontinuation) | effectiveness in treating CFS compared with placebo [4]
O=C1CC[C@@]2(O)[C@H]3Cc4ccc(O)c5c4[C@@]2(CCN3CC2CC2)[C@H]1O5 [naltrexone] | two | attacks immediately stopped | about ten | only subsequent attack in the intervening period of many months occurred one year later, three weeks after they voluntarily discontinued naltrexone | no attacks since | –
Nc1nc2c(ncn2COCCO)c(=O)[nH]1 [acyclovir] | – | – | – | – | – | no more effective than a placebo
